We go through one substance from US9587005B2 (priority 2010, dated 2017).

As a reminder, the EC50 is the concentration needed to bring the measured effect to its halfway point.

What all share (assay type): cell-based
The target in one assay is T1, GLP-1 receptor (Homo sapiens, UniProt P43220).
T1 construct: expressed in transfected cells; host or cells: HEK293
Briefly: cAMP induction, firefly luciferase reporter assay in HEK293 cells co-transfected with GLP-1 receptor. From the text: (§1) This example describes an exemplary method of testing the biological activity of the peptides of the present disclosures, which method involves assaying cAMP synthesis.
(Reporter assays use an easily measured gene product as a stand-in for the process of interest.)

In the next assay the target is T2, glucagon receptor (Homo sapiens, UniProt P47871).
T2 construct: expressed in transfected cells; host or cells: HEK293
Briefly: cAMP induction, firefly luciferase reporter assay in HEK293 cells co-transfected with glucagon receptor. The note with it: Table 3; relative to the activity of the native hormone.
Source text: as §1

The target of another assay is T3, GIP receptor (Homo sapiens, UniProt P48546).
T3 sequence (P48546 22-466): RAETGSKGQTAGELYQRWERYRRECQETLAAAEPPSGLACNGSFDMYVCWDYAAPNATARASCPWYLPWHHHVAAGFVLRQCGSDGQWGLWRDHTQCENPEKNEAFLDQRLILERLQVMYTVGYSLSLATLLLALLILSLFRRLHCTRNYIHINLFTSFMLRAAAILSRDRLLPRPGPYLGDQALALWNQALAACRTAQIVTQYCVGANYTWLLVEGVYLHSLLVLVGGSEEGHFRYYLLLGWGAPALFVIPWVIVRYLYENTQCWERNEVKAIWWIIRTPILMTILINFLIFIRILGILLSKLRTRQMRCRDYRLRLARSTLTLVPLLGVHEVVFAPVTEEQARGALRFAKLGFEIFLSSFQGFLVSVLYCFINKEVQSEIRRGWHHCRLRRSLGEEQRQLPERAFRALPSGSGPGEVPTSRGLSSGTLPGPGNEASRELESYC
As to the kind of experiment: cAMP induction, firefly luciferase reporter assay in HEK293 cells co-transfected with GIP receptor.

Where [1] appears, read: Table 3, relative to the activity of the native hormone.

T1 sequence (P43220 24-463): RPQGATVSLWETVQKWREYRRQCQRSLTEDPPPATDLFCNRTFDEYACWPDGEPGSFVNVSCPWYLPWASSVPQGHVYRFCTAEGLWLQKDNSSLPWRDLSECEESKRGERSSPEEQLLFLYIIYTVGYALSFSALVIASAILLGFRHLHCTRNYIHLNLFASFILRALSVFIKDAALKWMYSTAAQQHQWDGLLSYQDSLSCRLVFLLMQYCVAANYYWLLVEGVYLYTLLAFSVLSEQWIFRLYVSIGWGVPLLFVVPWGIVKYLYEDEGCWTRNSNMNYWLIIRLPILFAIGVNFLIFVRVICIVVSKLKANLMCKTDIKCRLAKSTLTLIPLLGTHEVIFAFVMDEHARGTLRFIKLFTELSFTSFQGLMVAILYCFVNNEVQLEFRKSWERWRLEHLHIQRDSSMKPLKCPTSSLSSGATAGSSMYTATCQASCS
T2 sequence (P47871 26-477): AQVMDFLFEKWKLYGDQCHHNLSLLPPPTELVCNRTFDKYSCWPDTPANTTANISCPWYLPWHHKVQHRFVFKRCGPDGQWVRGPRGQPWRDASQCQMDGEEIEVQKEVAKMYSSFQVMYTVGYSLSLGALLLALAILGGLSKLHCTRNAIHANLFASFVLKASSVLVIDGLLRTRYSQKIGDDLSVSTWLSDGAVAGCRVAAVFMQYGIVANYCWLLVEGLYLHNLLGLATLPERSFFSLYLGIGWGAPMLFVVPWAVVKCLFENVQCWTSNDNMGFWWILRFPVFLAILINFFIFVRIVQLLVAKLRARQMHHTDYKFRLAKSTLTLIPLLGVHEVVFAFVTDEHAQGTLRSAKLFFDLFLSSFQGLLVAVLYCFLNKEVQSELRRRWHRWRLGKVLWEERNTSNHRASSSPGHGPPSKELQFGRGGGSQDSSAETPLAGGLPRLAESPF

Take “Example 8 peptide: Tyr1, AIB2, Glu16/Lys20 lactam, Leu-Ala-Gly 27-29, GPSSGAPPPS 30-39, or a peptide lacking a lactam [mt-226]”: the EC50 at GLP-1 receptor (Table 3, Example 8, read-out: GLP-1R EC50) amounted to 97 pM; at GIP receptor (Table 3, Example 8, read-out: GIPR EC50), 1470 pM. The substance also displayed a GLP-1R relative activity at GLP-1 receptor (setting [1]) of 29.90%. The same substance showed a GR relative activity at glucagon receptor of 1.56%. Also, the GIPR relative activity at GIP receptor (setting [1]) was 1.16%.
